Test results as given in patent publication US20250170266A1 (ZYMEWORKS BC INC., priority 2022, published 2025).
Read-outs that look alike come from different tables or passages of the source.

What was measured:
Type in all cases: cell-based
mTLR7 = target: T1, mTLR7 (Mus musculus, UniProt P58681); experiment: Reporter Gene Assay (RGA), HEK-Blue mTLR7 reporter cells, SEAP readout; conditions: overnight incubation, SEAP absorbance 620 nm
T1 construct: host or cells: HEK-Blue mTLR7 reporter cells (HEK293-derived, own knowledge)
T1 sequence (P58681 27-1050): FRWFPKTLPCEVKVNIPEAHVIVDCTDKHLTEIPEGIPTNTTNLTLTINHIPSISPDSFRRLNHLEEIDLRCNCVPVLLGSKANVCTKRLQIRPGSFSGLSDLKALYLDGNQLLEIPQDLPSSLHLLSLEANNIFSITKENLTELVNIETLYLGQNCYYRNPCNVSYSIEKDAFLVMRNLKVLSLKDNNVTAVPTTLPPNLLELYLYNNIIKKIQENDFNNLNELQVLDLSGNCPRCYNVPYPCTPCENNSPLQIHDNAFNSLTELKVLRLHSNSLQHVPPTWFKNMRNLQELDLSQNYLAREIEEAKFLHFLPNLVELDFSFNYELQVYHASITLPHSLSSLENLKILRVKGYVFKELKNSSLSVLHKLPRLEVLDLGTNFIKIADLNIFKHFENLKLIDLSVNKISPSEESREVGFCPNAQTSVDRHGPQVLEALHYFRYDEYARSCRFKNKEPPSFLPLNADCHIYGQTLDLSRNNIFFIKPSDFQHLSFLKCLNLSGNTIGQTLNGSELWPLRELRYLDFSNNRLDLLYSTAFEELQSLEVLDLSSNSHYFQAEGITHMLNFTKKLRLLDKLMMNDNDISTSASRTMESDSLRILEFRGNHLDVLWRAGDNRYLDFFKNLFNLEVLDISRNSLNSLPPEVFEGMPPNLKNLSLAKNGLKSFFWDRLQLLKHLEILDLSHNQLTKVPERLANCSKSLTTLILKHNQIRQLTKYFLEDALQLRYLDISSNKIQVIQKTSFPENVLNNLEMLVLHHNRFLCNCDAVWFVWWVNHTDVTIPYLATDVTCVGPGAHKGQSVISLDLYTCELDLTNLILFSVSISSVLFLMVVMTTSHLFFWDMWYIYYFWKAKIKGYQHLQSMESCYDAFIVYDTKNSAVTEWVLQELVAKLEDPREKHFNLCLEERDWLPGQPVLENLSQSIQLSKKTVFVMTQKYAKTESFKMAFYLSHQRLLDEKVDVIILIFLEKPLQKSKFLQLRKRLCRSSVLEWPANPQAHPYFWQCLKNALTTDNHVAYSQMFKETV
Method: (§1) 1.5×10^4 HEK-Blue™ hTLR7 (Invivogen, San Diego, CA) or HEK-Blue™ mTLR7 (Invivogen, San Diego, CA) reporter cells were treated with a titration series of test compound (4-fold titration from […], 11 points). Compounds were initially diluted to 1 mM in DMSO and subsequently serial-diluted in assay media (HEK-Blue™ Detection; Invivogen, San Diego, CA). Cells with test compound were incubated overnight at 37° C.+5% CO2, and the amount of secreted embryonic alkaline phosphatase (SEAP) was determined by measuring absorbance (620 nm) using a Synergy™ H1 microplate reader.
(§2) Each assay included a positive control compound (referred to herein as “benchmark,” see, e.g., TABLE 3 below, and taken from International Patent Publication No. WO2017/072662, structure shown below) and a negative control (growth medium). […] The structure of the benchmark compound from International Patent Publication No. WO 2017/072662 is as follows: […]

hTLR7 = target: T2, hTLR7 (Homo sapiens, UniProt Q9NYK1); experiment: Reporter Gene Assay (RGA), HEK-Blue hTLR7 reporter cells, SEAP readout; conditions: overnight incubation, SEAP absorbance 620 nm
T2 construct: host or cells: HEK-Blue hTLR7 reporter cells (HEK293-derived, own knowledge)
T2 sequence (Q9NYK1 27-1049): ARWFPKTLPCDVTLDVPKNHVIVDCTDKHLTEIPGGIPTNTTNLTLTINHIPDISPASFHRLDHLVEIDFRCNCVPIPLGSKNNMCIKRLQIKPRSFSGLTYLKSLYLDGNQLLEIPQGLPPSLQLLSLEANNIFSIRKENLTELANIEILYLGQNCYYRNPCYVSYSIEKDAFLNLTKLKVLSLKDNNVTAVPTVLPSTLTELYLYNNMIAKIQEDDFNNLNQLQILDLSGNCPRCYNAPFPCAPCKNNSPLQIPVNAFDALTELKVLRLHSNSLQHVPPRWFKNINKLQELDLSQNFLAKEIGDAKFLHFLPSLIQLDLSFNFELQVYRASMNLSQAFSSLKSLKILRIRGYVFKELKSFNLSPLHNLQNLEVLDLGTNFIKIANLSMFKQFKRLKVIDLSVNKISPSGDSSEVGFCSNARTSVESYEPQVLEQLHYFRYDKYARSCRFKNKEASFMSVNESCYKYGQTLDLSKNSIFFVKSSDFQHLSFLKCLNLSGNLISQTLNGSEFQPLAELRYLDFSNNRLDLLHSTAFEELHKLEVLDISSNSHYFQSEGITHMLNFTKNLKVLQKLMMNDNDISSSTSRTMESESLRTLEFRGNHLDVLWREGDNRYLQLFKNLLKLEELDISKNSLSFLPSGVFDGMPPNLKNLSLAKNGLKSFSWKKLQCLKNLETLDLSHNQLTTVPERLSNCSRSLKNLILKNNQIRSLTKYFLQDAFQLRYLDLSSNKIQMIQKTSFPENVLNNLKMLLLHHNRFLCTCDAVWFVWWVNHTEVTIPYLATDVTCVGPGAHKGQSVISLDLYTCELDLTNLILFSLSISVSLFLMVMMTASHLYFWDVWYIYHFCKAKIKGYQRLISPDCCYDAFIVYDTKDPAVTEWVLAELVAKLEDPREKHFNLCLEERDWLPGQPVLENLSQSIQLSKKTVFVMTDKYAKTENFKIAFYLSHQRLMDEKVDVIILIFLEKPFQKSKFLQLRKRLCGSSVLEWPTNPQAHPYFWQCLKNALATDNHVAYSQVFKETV
Method: as §1, §2

[1] = test system: Human peripheral blood mononuclear cells (PBMCs); experiment: Human PBMC Assay, cytokine release (HTRF); conditions: PBMC, 24 hours
Description: Human peripheral blood mononuclear cells (PBMCs) were isolated from fresh Leukopak using magnetic separation. Briefly, erythrocytes and granulocytes were magnetically labeled with Erythrocyte Depletion MicroBeads (Miltenyi Biotec) and Granulocyte Depletion MicroBeads (Miltenyi Biotec), respectively. The cell suspension was loaded onto a Multi-24 Column Block (Miltenyi Biotec) and placed in the magnetic field of a MultiMACS Cell24 Separator Plus (Miltenyi Biotec). The unlabelled PBMCs were collected in the run through. PBMCs were resuspended in CryoStor® CS10 ([…]) and frozen. On the day before the assay, PBMCs were thawed in warm assay buffer (RPMI+10% FBS) and resuspended in assay buffer+10 ng/ml hIL3 (R&D Systems). Cells were rested at 37° C.+5% CO2 overnight. The following day, cells were spun down and resuspended in fresh assay buffer. 300,000 cells were added to each well of plates containing test compound. For test compound preparation, each compound was initially diluted to 1 mM in DMSO and further diluted in assay buffer. A 4-fold 11-point titration starting from 15 μM was performed. Cells were incubated with test compound at 37° C.+5% CO2 for 24 hours before supernatant was harvested. Human interleukin 6 (hIL6), human tumor necrosis factor alpha (hTNFα), and human interferon alpha (hIFNα) were quantified in the supernatant using homogeneous time resolved fluorescence (Cisbio).
as §2

[2] = hIFNα in supernatant, EC50 values approximated and divided into groups, read-out: PBMC IFNa EC50

Row | SMILES | EC50 (mTLR7) [µM] | EC50 (hTLR7) [µM] | EC50 [1, 2] [µM] | EC50 ([1]; hIL6 in supernatant, read-out: PBMC IL6 EC50) [µM]
1 | CCOc1nc(N)c2nc(O)n(Cc3ccc(CNC4CCCNC4)cc3OC)c2n1 (stereo not drawn) [Compound 127, 6-amino-2-ethoxy-9-(2-methoxy-4-((piperidin-3-ylamino)methyl)benzyl)-9H-purin-8-ol] | 1.03 | 0.175 | > 0.01 | 
2 | CCOc1nc(N)c2nc(O)n(Cc3ccc(CNC4CC5(CNC5)C4)cc3OC)c2n1 [Compound 130, 9-(4-(((2-azaspiro[3.3]heptan-6-yl)amino)methyl)-2-methoxybenzyl)-6-amino-2-ethoxy-9H-purin-8-ol] | 1.27 | 0.202 | > 0.01 | 
3 | CCOc1nc(N)c2nc(O)n(Cc3ccc(CNCCN4CCNCC4)cc3OC)c2n1 [Compound 134, 6-amino-2-ethoxy-9-(2-methoxy-4-(((2-(piperazin-1-yl)ethyl)amino)methyl)-benzyl)-9H-purin-8-ol] | 1.65 | 0.363 | > 0.01 | 
4 | CCOc1nc(N)c2nc(O)n(Cc3ccc(CNCC(O)CN4CCOCC4)cc3OC)c2n1 (stereo not drawn) [Compound 136, 6-amino-2-ethoxy-9-(4-(((2-hydroxy-3-morpholinopropyl)amino)methyl)-2-methoxybenzyl)-9H-purin-8-ol] | 1.71 | 0.223 | > 0.01 | 
5 | CCOc1nc(N)c2nc(O)n(Cc3ccc(CN4CCN(C(=O)CCOCCOCCOCCNC(=O)CC(SC[C@@H](N)C(=O)O)C(=O)O)CC4)cc3OC)c2n1 (stereo partly drawn) [Compound 149, (19S)-19-amino-1-(4-(4-((6-amino-2-ethoxy-8-hydroxy-9H-purin-9-yl)methyl)-3-methoxybenzyl)piperazin-1-yl)-16-carboxy-1,14-dioxo-4,7,10-trioxa-17-thia-13-azaicosan-20-oic Acid] | 1.26 | 0.52 | > 0.01 | 
6 | CCCCOc1nc(N)c2nc(O)n(Cc3ccc(CNCc4ccccc4)cc3OC)c2n1 [Compound 165, 6-amino-9-(4-((benzylamino)methyl)-2-methoxybenzyl)-2-butoxy-9H-purin-8-ol] | < 0.0001 | < 0.0001 | < 0.0001 | 6.99
7 | CCCCOc1nc(N)c2nc(O)n(Cc3ccc(CCN4CCC5(CCNCC5)CC4)cc3OC)c2n1 [Compound 177, 9-(4-(2-(3,9-diazaspiro[5.5]undecan-3-yl)ethyl)-2-methoxybenzyl)-6-amino-2-butoxy-9H-purin-8-ol] | 15.5 | 0.411 | > 0.01 | 
8 | CCCCOc1nc(N)c2nc(O)n(Cc3ccc(CCNC4CCNCC4)cc3OC)c2n1 [Compound 179, 6-amino-2-butoxy-9-(2-methoxy-4-(2-(piperidin-4-ylamino)ethyl)benzyl)-9H-purin-8-ol] | 0.421 | 0.181 | > 0.01 | 

Further lines, with some results ahead:

Row | EC50 (mTLR7) [µM] | EC50 (hTLR7) [µM] | SMILES | EC50 [1, 2] [µM] | EC50 ([1]; hIL6 in supernatant, read-out: PBMC IL6 EC50) [µM]
9 | 0.859 | 0.178 | CCOc1nc(N)c2nc(O)n(Cc3ccc(CNC4CCNC4)cc3OC)c2n1 (stereo in doubt) [Compound 133, (S)-6-amino-2-ethoxy-9-(2-methoxy-4-((pyrrolidin-3-ylamino)methyl)benzyl)-9H-purin-8-ol] | > 0.01 | 
10 | 0.0954 | 0.027 | CCCCCNc1nc(N)nc2ccn(Cc3ccc(CN4CCN(CCNC(=O)CC(SC[C@@H](N)C(=O)O)C(=O)O)CC4)cc3OC)c12 (stereo partly drawn) [Benchmark, reference compound] |  | 
11 | 0.659 | 0.033 | CCOc1nc(N)c2nc(O)n(Cc3ccc(CNC/C=C/CN)cc3OC)c2n1 [Compound 126, (E)-6-amino-9-(4-(((4-aminobut-2-en-1-yl)amino)methyl)-2-methoxybenzyl)-2-ethoxy-9H-purin-8-ol] | > 0.01 | 
12 | 0.541 | 0.0811 | CCOc1nc(N)c2nc(O)n(Cc3ccc(CNC4CNC4)cc3OC)c2n1 [Compound 129, 6-amino-9-(4-((azetidin-3-ylamino)methyl)-2-methoxybenzyl)-2-ethoxy-9H-purin-8-ol] | > 0.01 | 
13 | 0.676 | 0.0861 | CCOc1nc(N)c2nc(O)n(Cc3ccc(CNCCCN4CCNCC4)cc3OC)c2n1 [Compound 131, 6-amino-2-ethoxy-9-(2-methoxy-4-(((3-(piperazin-1-yl)propyl)amino)methyl)-benzyl)-9H-purin-8-ol] | > 0.01 | 
14 | 1.26 | 0.167 | CCOc1nc(N)c2nc(O)n(Cc3ccc(CN4CCN(C(=O)CCCCCNC(=O)CC(SC[C@@H](N)C(=O)O)C(=O)O)CC4)cc3OC)c2n1 (stereo partly drawn) [Compound 148, 2-(((S)-2-amino-2-carboxyethyl)thio)-4-((6-(4-(4-((6-amino-2-ethoxy-8-hydroxy-9H-purin-9-yl)methyl)-3-methoxybenzyl)piperazin-1-yl)-6-oxohexyl)amino)-4-oxobutanoic Acid] | > 0.01 | 
